Reference: patent publication US20040029823A1, “Antisense oligonucleotide compositions and methods for the modulation of JNK proteins” (priority 1997, published 2004)
Strand notation (5' to 3'): a small letter for the sugar, then the base; units joined by * are phosphorothioate-linked, units joined directly phosphodiester-linked; [ ] holds rarer units or linkages, { } end groups; capitals alone tell only the bases. d = 2'-deoxy (DNA)

Tests used:
JNK1 mRNA = assay: Northern assay of JNK1 mRNA expression in A549 cells; format: cell-based, human; details: for % EXPRESSION: relative to LIPOFECTIN-only control; for Normalized % Control: JNK1 mRNA dose response
Procedure: (§1) In order to evaluate the activity of potential JNK-modulating oligonucleotides, human lung carcinoma cell line A549 (American Type Culture Collection, Rockville, Md. No. ATCC CCL-185) cells or other cell lines as indicated in the Examples, were grown and treated with oligonucleotides or control solutions as detailed below. After harvesting, cellular extracts were prepared and examined for specific JNK mRNA levels or JNK protein levels (i.e., Northern or Western assays, respectively). In all cases, “% expression” refers to the amount of JNK-specific signal in an oligonucleotide-treated cell relative to an untreated cell (or a cell treated with a control solution that lacks oligonucleotide), and “% inhibition” is calculated as
(§2) 100%−% Expression =% Inhibition.
(§3) Northern Assays: The mRNA expression of each JNK protein was determined by using a nucleic acid probe specifically hybridizable thereto. Nucleic acid probes specific for JNK1, JNK2 and JNK3 are described in Examples 3, 4 and 5, respectively. The probes were radiolabelled by means well known in the art (see, e.g., Short Protocols in Molecular Biology, 2nd Ed., Ausubel et al., Eds., John Wiley & Sons, New York, 1992, pages 3-11 to 2-3-44 and 4-17 to 4-18; Ruth, Chapter 6 In: Methods in Molecular Biology, Vol. 26: Protocols for Oligonucleotide Conjugates, Agrawal, ed., Humana Press Inc., Totowa, N.J., 1994, pages 167-185; and Chapter 10 In: Molecular Cloning: A Laboratory Manual, 2nd Ed., Sambrook et al., Eds., pages 10.1-10.70). The blots were stripped and reprobed with a ^32P-labeled glyceraldehyde 3-phosphate dehydrogenase (G3PDH) probe (Clontech Laboratories, Inc., Palo Alto, Calif.) in order to confirm equal loading of RNA and to allow the levels of JNK transcripts to be normalized with regard to the G3PDH signals.
(§4) A549 cells were grown in T-75 flasks until 80-90% confluent. At this time, the cells were washed twice with 10 mL of media (DMEM), followed by the addition of 5 mL of DMEM containing 20 μg/mL of LIPOFECTIN™ (i.e., 1:1 (w/w) DOTMA/DOPE, Life Technologies, Gaithersburg, Md.; DOTMA=N-[1-(2,3-dioleyoxy)propyl]-N,N,N-trimethylammonium chloride; DOPE=dioleoyl phosphatidylethanolamine). The oligonucleotides were added from a 10 μM stock solution to a final concentration of 400 nM, and the two solutions were mixed by swirling the flasks. As a control, cells were treated with LIPOFECTIN™ without oligonucleotide under the same conditions and for the same times as the oligonucleotide-treated samples. After 4 hours at 37° C., the medium was replaced with fresh DMEM containing 10% serum. The cells were allowed to recover for 18 hours. Total cellular RNA was then extracted in guanidinium, subject to gel electrophoresis and transferred to a filter according to techniques known in the art (see, e.g., Chapter 7 In: Molecular Cloning: A Laboratory Manual, 2nd Ed., Sambrook et al., Eds., pages 7.1-7.87, and Short Protocols in Molecular Biology, 2nd Ed., Ausubel et al., Eds., John Wiley & Sons, New York, 1992, pages 2-24 to 2-30 and 4-14 to 4-29). Filters were typically hybridized overnight to a probe specific for the particular JNK gene of interest in hybridization buffer (25 mM KPO4, pH 7.4; 5×SSC; 5× Denhardt's solution, 100 μg/ml Salmon sperm DNA and 50% formamide) (Alahari et al., Nucl. Acids Res., 1993, 21, 4079). This was followed by two washes with 1×SSC, 0.1% SDS and two washes with 0.25×SSC, 0.1% SDS. Hybridizing bands were visualized by exposure to X-OMAT AR film and quantitated using a PHOSPHORIMAGER™ essentially according to the manufacturer's instructions (Molecular Dynamics, Sunnyvale, Calif.)
B. JNK1-specific probes: In initial screenings of a set of oligonucleotides derived from the JNK1 sequence (Table 2) for biological activity, a cDNA clone of JNK1 (Derijard et al., Cell, 1994, 76, 1025) was radiolabeled and used as a JNK1-specific probe in Northern blots. […]

JNK2 mRNA = assay: Northern assay of JNK2 mRNA expression in A549 cells; format: cell-based, human; details: JNK2 mRNA, A549 cells, 400 nM oligonucleotide, relative to LIPOFECTIN-only control
Procedure: as §1, §2, §3, §4
B. JNK2-specific probes: In initial screenings of a set of oligonucleotides derived from the JNK2 sequence (Table 9) for biological activity, a cDNA clone of JNK2 (Kallunki et al., Genes & Development, 1994, 8, 2996) was radiolabeled and used as a JNK2-specific probe in Northern blots. […]

[1] = JNK1 mRNA, A549 cells, 400 nM oligonucleotide
[2] = JNK1 mRNA, A549 cells, 400 nM oligonucleotide, 100% - % expression

Substance | % EXPRESSION (JNK1 mRNA; [1]) | % INHIBITION (JNK1 mRNA; [2]) | also measured
11978 (antisense ATTCTTTCCACTCTTCTATT; DNA, all phosphorothioate, methylation of C not given here) [compound 11978] | 85% | 15% | 
11979 (antisense CTCCTCCAAGTCCATAACTT; DNA, all phosphorothioate, methylation of C not given here) [compound 11979] | 90% | 10% | 
11980 (antisense CCCGTATAACTCCATTCTTG; DNA, all phosphorothioate, methylation of C not given here) [compound 11980] | 85% | 15% | 
11981 (antisense CTGTGCTAAAGGAGAGGGCT; DNA, all phosphorothioate, methylation of C not given here) [compound 11981] | 62% | 28% | 
11982 (antisense ATGATGGATGCTGAGAGCCA; DNA, all phosphorothioate, methylation of C not given here) [compound 11982] | 13% |  | 
11983 (antisense GTTGACATTGAAGACACATC; DNA, all phosphorothioate, methylation of C not given here) [compound 11983] | 40% |  | 
11984 (antisense CTGTATCAGAGGCCAAAGTC; DNA, all phosphorothioate, methylation of C not given here) [compound 11984] | 53% | 47% | 
11985 (antisense TGCTGCTTCTAGACTGCTGT; DNA, all phosphorothioate, methylation of C not given here) [compound 11985] | 47% |  | 
11986 (antisense AGTCATCTACAGCAGCCCAG; DNA, all phosphorothioate, methylation of C not given here) [compound 11986] | 90% | 10% | 
11987 (antisense CCATCCCTCCCACCCCCCGA; DNA, all phosphorothioate, methylation of C not given here) [compound 11987] | 47% |  | 
11988 (antisense ATCAATGACTAACCGACTCC; DNA, all phosphorothioate, methylation of C not given here) [compound 11988] | 78% | 22% | 
11989 (antisense CAAAAATAAGACCACTGAAT; DNA, all phosphorothioate, methylation of C not given here) [compound 11989] | 60% | 40% | 
12463 (antisense CACGCTTGCTTCTGCTCATG; DNA, all phosphorothioate, methylation of C not given here) [compound 12463] | 23% |  | 
12464 (antisense CGGCTTAGCTTCTTGATTGC; DNA, all phosphorothioate, methylation of C not given here) [compound 12464] | 18% |  | 
12538 (antisense CCCGCTTGGCATGAGTCTGA; chemistry not fully specified) [compound 12538] | 33% |  | 
12548 (antisense ATTTGCATCCATGAGCTCCA; DNA, all phosphorothioate, methylation of C not given here) [compound 12548] | 5% |  | 
12549 (antisense CGTTCCTGCAGTCCTGGCCA; DNA, all phosphorothioate, methylation of C not given here) [compound 12549] | 28% |  | 
12550 (antisense GGATGACCTCGGGTGCTCTG; DNA, all phosphorothioate, methylation of C not given here) [compound 12550] | 40% |  | 
12551 (antisense CCCATAATGCACCCCACAGA; DNA, all phosphorothioate, methylation of C not given here) [compound 12551] | 52% | 48% | 
12552 (antisense CGGGTGTTGGAGAGCTTCAT; DNA, all phosphorothioate, methylation of C not given here) [compound 12552] | 34% |  | 
12553 (antisense TTTGGTGGTGGAGCTTCTGC; DNA, all phosphorothioate, methylation of C not given here) [compound 12553] | 25% |  | 
12554 (antisense GGCTGCCCCCGTATAACTCC; DNA, all phosphorothioate, methylation of C not given here) [compound 12554] | 11% |  | 
12555 (antisense TGCTAAAGGAGAGGGCTGCC; DNA, all phosphorothioate, methylation of C not given here) [compound 12555] | 27% |  | 
12556 (antisense AGGCCAAAGTCGGATCTGTT; DNA, all phosphorothioate, methylation of C not given here) [compound 12556] | 41% |  | 
12557 (antisense CCACCCCCCGATGGCCCAAG; DNA, all phosphorothioate, methylation of C not given here) [compound 12557] | 29% |  | 
12558 (antisense dG*dT*dT*dT*dC*dA*dG*dA*dT*dC*dC*dC*dT*dC*dG*dC*dC*dC*dG*dC) [compound 12558] |  |  | % EXPRESSION (JNK2 mRNA): 15%
12559 (antisense dT*dG*dC*dA*dG*dC*dA*dC*dA*dA*dA*dC*dA*dA*dT*dC*dC*dC*dT*dT) [compound 12559] |  |  | % EXPRESSION (JNK2 mRNA): 28%
14320 (sense CCAAGCGGGCCTACAGAGAG; DNA, all phosphorothioate, methylation of C not given here) [compound 14320] |  |  | Normalized % Control (JNK1 mRNA; 50 nM): 103.6%; Normalized % Control (JNK1 mRNA; 100 nM): 76.3%; Normalized % Control (JNK1 mRNA; 200 nM): 98.9%; Normalized % Control (JNK1 mRNA; 400 nM): 97.1%
14321 (CTTTCCGTTGGACCCCTGGG; DNA, all phosphorothioate, methylation of C not given here) [compound 14321] |  |  | Normalized % Control (JNK1 mRNA; 50 nM): 91.8%; Normalized % Control (JNK1 mRNA; 100 nM): 94.1%; Normalized % Control (JNK1 mRNA; 200 nM): 100.2%; Normalized % Control (JNK1 mRNA; 400 nM): 79.2%
CTC-TCT-GTA-GGC-CCG-CTT-GG (CTCTCTGTAGGCCCGCTTGG; chemistry not given here) [ISIS 12539] |  |  | % INHIBITION (JNK1 mRNA; JNK1 mRNA time course, t=0 h after 4 hour treatment): greater than 85%; % INHIBITION (JNK1 mRNA; JNK1 mRNA time course, t=4 h): about 95%; % INHIBITION (JNK1 mRNA; JNK1 mRNA time course, t=12 h): greater than or equal to 80%; % INHIBITION (JNK1 mRNA; JNK1 mRNA time course, t=48 h): greater than or equal to 80%; % INHIBITION (JNK1 mRNA; JNK1 mRNA time course, time 272 h [sic] (t=72 h in text)): ≥ 60%
